Measured values as given in patent US6770649B2, “1-[1-(hetero)aryl-1-perhydroxyalkylmethyl]-piperazine compounds, process for their preparation and pharmaceutical compositions containing them” (Solvay Pharmaceuticals GmbH, priority 2001, dated 2004).
Like-named read-outs stand apart in the source and are kept apart here.

Legend:
[1] = target: T1, human NK-2 receptor (Homo sapiens, UniProt P21452); test: Binding power of the test substances to NK-2 receptors in vitro ([3H]-SR 48968 displacement, CHO cell membranes); conditions: displacement of [3H]-SR 48968, 90 min incubation, average of at least three measurements, 10^-6 to 10^-10 mol/l, read-out: pKi, affinity to human NK-2 receptors (converted)
T1 construct: expressed in transfected cells; host or cells: CHO cells (membrane preparation)
T1 sequence (P21452 1-398): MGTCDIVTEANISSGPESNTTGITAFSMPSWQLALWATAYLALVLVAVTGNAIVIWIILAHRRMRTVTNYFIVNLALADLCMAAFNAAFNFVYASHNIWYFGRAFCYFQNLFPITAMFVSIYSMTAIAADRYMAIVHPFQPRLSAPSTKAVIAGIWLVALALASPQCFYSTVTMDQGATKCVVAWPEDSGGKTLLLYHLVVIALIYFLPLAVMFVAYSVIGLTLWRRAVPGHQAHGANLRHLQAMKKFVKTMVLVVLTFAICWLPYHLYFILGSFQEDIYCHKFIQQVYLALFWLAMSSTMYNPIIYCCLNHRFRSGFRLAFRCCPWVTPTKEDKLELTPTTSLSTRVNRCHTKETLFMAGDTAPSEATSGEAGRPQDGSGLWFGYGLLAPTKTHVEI
Protocol: 1. Determination of the Binding Power of the Test Substances to NK-2 Receptors in vitro
The affinity of the test substances to human NK-2 receptors was measured in vitro. The ability of the test substances to displace the selective NK-2 receptor antagonist SR 48968 (=saredutant) used as reference ligand from its corresponding bond was determined.
The receptor binding studies were carried out with radioactively marked [^3H]-SR 48968 (from Amersham) as ligand. For the binding test, different samples of a membrane preparation of CHO cells (=[…]), which express the human NK-2 receptor (for preparation, see N. P. Gerard et al., Journal of Biological Chemistry 265/33 (1990) 20455-20462), were incubated for 90 minutes (=min.) with a solution of the marked ligand, with the incubation mixtures containing no test substance or additions of different concentrations of test substance. Then in each case the membrane-bound ligands in the samples were separated from free ligands by filtration. The fraction remaining in the filter was washed several times with buffer solution, before its radioactivity was measured using a liquid scintillation counter. That concentration which effects half-maximum displacement of the bound reference ligand was determined as IC50 of the respective test substance. The inhibition constant (Ki value) of the test substance was calculated from the respective IC50 value, and was stated as the negative logarithmised value thereof (pKi).
For the compounds of Examples 1 to 39, the affinity to human NK-2 receptors was determined in each case by at least three measurements of the test substances in concentration series of 10^−6 to 10^−10 mol/l. If several measurements were performed, the average thereof was listed each time.

[2] = target: T2, NK-2 receptors (Cavia porcellus, UniProt Q64077); test: Functional NK-2 antagonism on isolated guinea pig gall-bladder preparations (NKA-induced contraction); format: cell-based; conditions: inhibition of contraction caused by NKA 0.1 μmol/l; two hours' incubation; Pirbright-White guinea pig gall-bladder
T2 construct: the NK-2 receptors present in the gall-bladder preparations; from tissue; host or cells: Pirbright-White guinea pig: isolated gall-bladder (A2); anaesthetised whole animal (A3)
T2 sequence (Q64077 1-402): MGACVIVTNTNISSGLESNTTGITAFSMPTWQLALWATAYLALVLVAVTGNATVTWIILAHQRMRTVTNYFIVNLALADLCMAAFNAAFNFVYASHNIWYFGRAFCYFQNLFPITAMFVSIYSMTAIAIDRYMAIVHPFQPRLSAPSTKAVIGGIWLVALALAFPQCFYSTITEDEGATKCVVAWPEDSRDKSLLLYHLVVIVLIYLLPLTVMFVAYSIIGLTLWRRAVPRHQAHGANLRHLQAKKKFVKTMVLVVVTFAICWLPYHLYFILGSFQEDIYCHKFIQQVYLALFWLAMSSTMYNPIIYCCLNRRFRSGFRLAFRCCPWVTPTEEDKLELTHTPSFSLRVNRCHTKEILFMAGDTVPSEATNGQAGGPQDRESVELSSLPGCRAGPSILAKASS
Protocol: 2. Determination of the Functional Antagonism of the Test Substances on Isolated Guinea Pig Tissue in vitro
The NK-2 receptor-antagonising action of the test substances was determined on isolated gall-bladder preparations from Pirbright-White guinea pigs, held in an oxygen-saturated nutrient solution. To this end, the preparations were fastened on one hand in the nutrient solution to organ holders and on the other hand on a force meter by a thread.
In this test the NK-2 receptors present in the gall-bladder preparations were stimulated with the natural NK-2 receptor agonist neurokinin A (=NKA; 0.1 μmol/l) and the contractions of the preparations caused thereby were measured as contractility in mN (=preliminary value) measured. Then NKA was rinsed out of the preparations with NKA-free solution and the test substances were added in a concentration of 10^−7 mol/l. After two hours' incubation of the preparations with the test substances, the contractions of the preparations then still caused by renewed NKA addition were again measured and the results were given as percentages, relative to the contractions initially measured, caused solely by NKA addition. The concentration of the test substances was increased iteratively in the subsequent experiments as a function of the result in logarithmic whole or half steps, until at least one concentration above or below 50% inhibition of contraction was determined (up to at most 10^−5 mol/l). For each concentration, the average value of inhibition of contraction was calculated from 2 to 4 preparations. In each case, the concentration of half-maximum inhibition (IC50) per test substance was calculated as characteristic variable. In each case the logarithmised value of the IC50 per test substance is given as pIC50 in [mol/l].

[3] = target: T2, NK-2 receptors; test: NK-2-receptor-antagonistic effectiveness in vivo in anaesthetised guinea pigs (NKA test stimulus); parameters: species or system guinea pig; conditions: for ED50: guinea pig
Excerpt: 3. Determination of the NK-2-receptor-antagonistic Effectiveness of the Test Substances in vivo
The NK-2- and NK-1-antagonistic activities of the test substances were investigated in anaesthetised guinea pigs in each case after intravenous (=i.v.) and oral (=p.o.) administration in vivio. With the present test model it is possible to detect both NK-2-antagonistic effects in three different organ systems (respiratory tracts, colon and circulation) and NK-1-antagonistic effects (rapid drop in blood pressure) in an animal simultaneously.
Pirbright-White guinea pigs of a body weight of 500-700 g were anaesthetised with ketamine/xylazine (67/13 mg/kg subcutaneously, initial dose, further doses administered as required). The animals were provided with an intravenous catheter in order to administer the substance and an intra-arterial catheter to measure the blood pressure. The animals were artificially ventilated via a tracheal cannula and the respiratory pressure was recorded by means of a pressure transducer. A balloon was introduced into the distal colon of the animals for manometric recording of colon motility by means of a pressure transducer. Blood pressure, heart rate, respiratory pressure and colonic pressure were measured continuously for each animal and plotted on a recorder and by means of a digital data-processing system. Neurokinin A (=NKA; 200 pmol/animal) was administered i.v. as a bolus as a test stimulus to stimulate the NK-1- and the NK-2 receptors. An addition of NKA of this type results in a great increase in respiratory pressure (bronchoconstriction) and colonic pressure, and in a biphasic drop in blood pressure. The first phase of hypotension (=phase of maximum hypotension within the first minute after administration of NKA) is mediated via NK-1 receptors, since they can be blocked completely by specific NK-1 receptor antagonists. The second phase of delayed hypotension (=phase of maximum hypotension after 2-5 min.) on the other hand is mediated via NK-2 receptors, since they can be blocked by specific NK-2 receptor antagonists. The doses of the test substances are given as ED50 values which each result in a response to the NKA test stimulus which is reduced to 50% of the initial value, as characteristic variables for the individual measurement parameters bronchoconstriction, colonic pressure and change in blood pressure mediated by NK-1 or NK-2.
The antagonistic effects of the test substances were first investigated in cumulative form, the time of the NKA test stimulus being 1 min. after the administration of the respective doses of the test substances had ended. These ED50 values obtained from cumulative dose effect curves are plotted in Table 2 below. In order additionally to detect the variation over time of the antagonistic effects of the test substances, the action of the NKA test stimulus was determined at different times (1, 30, 60, 90, 120, 150 and 180 min.) after administration of the test substances.

| Ki [1] [pM] | IC50 [2] [pM] | ED50 ([3]; iv, cumulative dosing, NKA stimulus 1 min. after administration, respiratory resistance (bronchoconstriction), read-out: ED50 Respiratory resistance, i.v. after 1 min. (cumulative)) [µmol/kg] | ED50 ([3]; iv, cumulative dosing, NKA stimulus (200 pmol/animal i.v.) 1 min. after administration, colonic pressure, read-out: ED50 Colonic pressure, i.v. after 1 min. (cumulative)) [µmol/kg] | ED50 ([3]; iv, from AUC of antagonistic effect over 120 min after administration, colonic pressure, read-out: ED50 Colonic pressure, i.v. AUC over 120 min) [µmol/kg] | ED50 ([3]; iv, from AUC over 120 min after administration, respiratory resistance, read-out: ED50 Respiratory resistance, i.v. AUC over 120 min) [µmol/kg] | ED50 ([3]; po, from AUC over 180 min after administration, colonic pressure, read-out: ED50 Colonic pressure, p.o. AUC over 180 min.) [µmol/kg] | ED50 ([3]; po, from AUC over 180 min after administration, respiratory resistance, read-out: ED50 Respiratory resistance, p.o. AUC over 180 min.) [µmol/kg] | Structure (SMILES) | NK-2-receptor-antagonistic activity of colon motility, late drop in blood pressure and respiratory resistance (in words) ([3]; cumulative administration i.v., antagonism detected 1 min. after administration had ended) | ED50 ([3]; iv, cumulative dosing, NKA stimulus 1 min. after administration, NK-2-mediated late drop in blood pressure, read-out: ED50 Blood pressure, i.v. after 1 min. (cumulative)) [µmol/kg] | ED50 ([3]; iv, from AUC over 120 min after administration, NK-2-mediated drop in blood pressure, read-out: ED50 Blood pressure, i.v. AUC over 120 min) [µmol/kg] | ED50 ([3]; po, from AUC over 180 min after administration, NK-2-mediated drop in blood pressure, read-out: ED50 Blood pressure, p.o. AUC over 180 min.) [µmol/kg] |
| --- | --- | --- | --- | --- | --- | --- | --- | --- | --- | --- | --- | --- |
| ≤ 10000 | 251 | – | – | – | – | – | – | CN(CC(CCN1CCN(C(c2ccsc2)[C@H](O)[C@@H](O)[C@H](O)CO)CC1)c1ccc(Cl)c(Cl)c1)C(=O)c1ccccc1 (mixture of isomers) [Example 7] | – | – | – | – |
| ≤ 10000 | 501 | – | – | – | – | – | – | CN(CC(CCN1CCN(C(c2ccsc2)[C@@H](O)[C@@H](O)[C@H](O)CO)CC1)c1ccc(Cl)c(Cl)c1)C(=O)c1ccccc1 (mixture of isomers) [Example 9] | – | – | – | – |
| ≤ 10000 | 200 | – | – | – | – | – | – | CN(CC(CCN1CCN(C(c2ccsc2)[C@@H](O)[C@H](O)[C@H](O)CO)CC1)c1ccc(Cl)c(Cl)c1)C(=O)c1ccccc1 (mixture of isomers) [Example 17] | – | – | – | – |
| ≤ 10000 | – | 0.079 | 0.041 | 0.009 | 0.042 | 4.5 | 3.2 | CN(C[C@@H](CCN1CCN(C(c2ccsc2)[C@H](O)[C@H](O)CO)CC1)c1ccc(Cl)c(Cl)c1)C(=O)c1ccccc1 (stereo partly drawn) [Example 15, N-((2S)-2-(3,4-dichlorophenyl)-4-{4[(2S,3R)-2,3,4-trihydroxy-1-(3-thienyl)butyl]-1-piperazinyl}-butyl)-N-methylbenzamide] | marked NK-2-receptor-antagonistic activity | 0.114 | 0.047 | 8.6 |
